In patent US20170196842A1, “METHODS OF TREATMENT USING A 1,2,4-OXADIAZOLE BENZOIC ACID” (PTC Therapeutics, Inc., priority 2014, published 2017):
Like-named read-outs stand apart in the source and are kept apart here.

Experiment: Pharmacokinetics of Compound 1 delivered via solid chow (plasma, LC-MS/MS)
Format: in vivo, C57BL/6J mice
Details: for Tmax / Tmin / Cmin / AUC / Cmax: C57BL/6J mice; for AUC / Cmax: C57BL/6J, mouse, plasma, po; for AUC: read-out: AUC9-10
Procedure: The pharmacokinetics of Compound 1 at three doses (0.1%, 0.3% or 1% (w/w)) when delivered via solid chow was determined in satellite wild type C57BL/6J mice. The first day Compound 1 was provided was defined as Day 0. On Day 3 and on Day 13 blood was obtained from mice at specified time points and the plasma concentration of Compound 1 was measured using liquid chromatography-tandem mass spectrometry.
AUC9-10 refers to area under the curve plotting plasma concentration over time (9 am to 10 pm) (hr·μg/mL); Cmax refers to maximal plasma concentration (μg/mL); Cmin refers to minimal plasma concentration (μg/mL); Tmax refers to the time at which the maximal plasma concentration was measured; and Tmin refers to the time at which the minimal plasma concentration was measured.

[1] = 0.1% (w/w) in chow, Day 3, clock time
[2] = 0.1% (w/w) in chow, Day 13, clock time
[3] = 0.3% (w/w) in chow, Day 3, clock time
[4] = 0.3% (w/w) in chow, Day 13, clock time
[5] = 1.0% (w/w) in chow, Day 3, clock time
[6] = 1.0% (w/w) in chow, Day 13, clock time

Tmax [1]: 10 pm | Tmin [1]: 1 pm | Cmin (0.1% (w/w) in chow, Day 3, plasma): 760 ng/mL | Tmax [2]: 10 pm | Tmin [2]: 1 pm | Cmin (0.1% (w/w) in chow, Day 13, plasma): 1000 ng/mL | Tmax [3]: 10 pm | Tmin [3]: 1 pm | Cmin (0.3% (w/w) in chow, Day 3, plasma): 3700 ng/mL | Tmax [4]: 10 pm | Tmin [4]: 9 am | Cmin (0.3% (w/w) in chow, Day 13, plasma): 4600 ng/mL | Tmax [5]: 4 pm | Tmin [5]: 1 pm | Cmin (1.0% (w/w) in chow, Day 3, plasma): 21000 ng/mL | Tmax [6]: 4 pm | Tmin [6]: 9 am | Cmin (1.0% (w/w) in chow, Day 13, plasma): 19000 ng/mL | AUC (0.1 % (w/w) in chow, 0.1% (w/w) in chow, Day 3, 9 am to 10 pm): 35000 ng·h/mL | Cmax (0.1 % (w/w) in chow, 0.1% (w/w) in chow, Day 3, plasma): 5200 ng/mL | AUC (0.1 % (w/w) in chow, 0.1% (w/w) in chow, Day 13, 9 am to 10 pm): 28000 ng·h/mL | Cmax (0.1 % (w/w) in chow, 0.1% (w/w) in chow, Day 13, plasma): 3600 ng/mL | AUC (0.3 % (w/w) in chow, 0.3% (w/w) in chow, Day 3, 9 am to 10 pm): 109000 ng·h/mL | Cmax (0.3 % (w/w) in chow, 0.3% (w/w) in chow, Day 3, plasma): 19000 ng/mL | AUC (0.3 % (w/w) in chow, 0.3% (w/w) in chow, Day 13, 9 am to 10 pm): 89000 ng·h/mL | Cmax (0.3 % (w/w) in chow, 0.3% (w/w) in chow, Day 13, plasma): 13000 ng/mL | AUC (1 % (w/w) in chow, 1.0% (w/w) in chow, Day 3, 9 am to 10 pm): 420000 ng·h/mL | Cmax (1 % (w/w) in chow, 1.0% (w/w) in chow, Day 3, plasma): 41000 ng/mL | AUC (1 % (w/w) in chow, 1.0% (w/w) in chow, Day 13, 9 am to 10 pm): 594000 ng·h/mL | Cmax (1 % (w/w) in chow, 1.0% (w/w) in chow, Day 13, plasma): 58000 ng/mL | Plasma concentrations (range over time points) (mice, 1.0% (w/w) in chow): 19000 to 58000 ng/mL
SMILES: O=C(O)c1cccc(-c2noc(-c3ccccc3F)n2)c1 [Compound 1, 3-[5-(2-fluoro-phenyl)-[1,2,4]oxadiazol-3-yl]-benzoic acid]
